Experimental data published in patent US20060275365A1, “Immediate-release and high-drug-load pharmaceutical formulations of micronised (4-chlorophenyl) [4-(4-pyridylmethyl)phthalazin-1-yl] and salts thereof” (priority 2005, published 2006).

How the values were obtained:
[1] = system: VEGFR kinases; conditions: not dependent on a specific ligand; cited from earlier work
[2] = Particle size volume distribution by laser diffraction (Sympatec Helos); type: physicochemical; conditions: spherical particles presumed
Excerpt: When used herein, the term “micronised” is intended to mean that the particle size distribution is so that at least 90% of the particles have a particle diameter of less than 30 μm (calculated from the volume distribution curve under the presumption of spherical particles), i.e. a d90 value of at the most 30 μm. It is well-known to the skilled person that parameters used to describe a given particle size distribution may vary considerably dependent on the specific equipment and settings used. Therefore, it is important to note that whenever the terms “particle size distribution”, “particle diameter”, “d50”, “d90”, “d95”, “d99”, etc. are used herein it should be understood that the specific values or ranges used in connection therewith are always meant to be determined from the volume distribution curve under the presumption of spherical particles using laser diffraction and the conditions set forth in the section entitled “Determination of particle size distribution” herein.
Determination of the particle size volume distribution of pynasunate was performed by laser diffraction using the following equipment and settings: […]

SMILES	inhibition of VEGFR kinases [1]	d50 particle size diameter [2]	d90 particle size diameter [2]
Clc1ccc(Nc2nnc(Cc3ccncc3)c3ccccc23)cc1 [(4-chlorophenyl)[4-(4-pyridylmethyl)-phthalazin-1-yl]]	inhibitor of all three VEGFR kinases	–	–
Clc1ccc(Nc2nnc(Cc3ccncc3)c3ccccc23)cc1 [pynasunate, (4-chlorophenyl)[4-(4-pyridylmethyl)-phthalazin-1-yl]ammonium hydrogen succinate]	–	6 μm	15 μm
